Measurements taken from publication PMC9270327 (Communications Biology, 2022).
Where a SMILES comes first, the peptide text is derived from it. The star is where a group is joined. AMC = Cc1cc(=O)oc2cc(N*)ccc12; Boc = CC(C)(C)OC(=O)*

Assays:
[1] = target: TMPRSS2 (Homo sapiens, UniProt O15393); test: Michaelis-Menten constant of the fluorogenic reference substrate; details: read-out: Michaelis-Menten constant KM for TMPRSS2
Experimental: The measurements were performed on a Tecan infinite® M1000 and the fluorescence intensity was measured by exciting the AMC fluorophore at 380 nm wavelength and recording emission at 460 nm wavelength. […] Fluorescence intensities and absorption were measured every 2 min for 2 h or as endpoint after 2 h.
Supplementary Figure 2 Michaelis-Menten constant (KM) of the fluorogenic reference substrate
The data points were plotted using the Michaelis -Menten
equation in GraphPad Prism prism version 8.4.2 (San Diego, California). Shown are the means ± SD of
n=1 experiment performed in triplicates.

[2] = target: T1, recombinant human matriptase (Homo sapiens, UniProt Q9Y5Y6); test: Enzyme inhibition assay with purified matriptase (Ki, dose-response); type: biochemical; details: for matriptase activity, Mean (Fig. 2b): normalized, 0 nM = 100
T1 construct: purchased R&D Systems (Minneapolis, MN, USA)
T1 sequence (Q9Y5Y6 1-855): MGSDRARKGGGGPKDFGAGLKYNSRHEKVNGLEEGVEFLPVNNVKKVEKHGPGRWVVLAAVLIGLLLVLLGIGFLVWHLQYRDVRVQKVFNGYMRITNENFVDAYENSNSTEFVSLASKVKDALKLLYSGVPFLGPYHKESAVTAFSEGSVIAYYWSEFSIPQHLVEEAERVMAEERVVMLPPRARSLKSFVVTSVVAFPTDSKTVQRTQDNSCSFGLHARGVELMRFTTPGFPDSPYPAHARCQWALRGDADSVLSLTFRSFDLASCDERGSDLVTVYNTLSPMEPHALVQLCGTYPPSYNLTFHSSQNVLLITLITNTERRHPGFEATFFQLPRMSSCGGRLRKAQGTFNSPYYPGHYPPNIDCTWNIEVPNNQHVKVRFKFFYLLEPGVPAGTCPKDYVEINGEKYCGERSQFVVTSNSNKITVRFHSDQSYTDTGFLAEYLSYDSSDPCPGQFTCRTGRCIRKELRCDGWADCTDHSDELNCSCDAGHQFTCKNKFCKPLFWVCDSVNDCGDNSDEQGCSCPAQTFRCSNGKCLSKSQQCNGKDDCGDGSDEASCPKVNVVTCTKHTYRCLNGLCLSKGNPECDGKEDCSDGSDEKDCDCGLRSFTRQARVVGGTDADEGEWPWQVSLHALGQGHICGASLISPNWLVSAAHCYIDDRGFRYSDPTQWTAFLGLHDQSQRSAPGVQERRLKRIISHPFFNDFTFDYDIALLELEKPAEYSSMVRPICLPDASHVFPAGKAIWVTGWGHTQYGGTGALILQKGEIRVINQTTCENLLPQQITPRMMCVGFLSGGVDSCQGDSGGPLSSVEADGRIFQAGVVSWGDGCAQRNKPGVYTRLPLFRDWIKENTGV

[3] = target: T2, recombinant human thrombin (Homo sapiens, UniProt P00734); test: Enzyme inhibition assay with purified thrombin (Ki, dose-response); type: biochemical; details: for thrombin activity, Mean (Fig. 2c): normalized
T2 construct: purchased R&D Systems (Minneapolis, MN, USA)
Source text: (§1) Recombinant human TMPRSS2 was purchased from Creative BioMart (New York, USA) or LSBio (Seattle, USA), factor Xa was obtained from Bio-Techne GmbH (Wiesbaden, Germany). Recombinant human thrombin and matriptase protein were purchased from R&D Systems (Minneapolis, MN, USA).

[4] = target: T3, factor Xa (Homo sapiens, UniProt P00742); test: Enzyme inhibition assay with purified factor Xa (Ki, dose-response); type: biochemical; details: for factor Xa activity, Mean (Fig. 2d): normalized, 0 nM = 100
T3 construct: purchased Bio-Techne GmbH (Wiesbaden, Germany)
T3 sequence (P00742 235-488 limits assumed): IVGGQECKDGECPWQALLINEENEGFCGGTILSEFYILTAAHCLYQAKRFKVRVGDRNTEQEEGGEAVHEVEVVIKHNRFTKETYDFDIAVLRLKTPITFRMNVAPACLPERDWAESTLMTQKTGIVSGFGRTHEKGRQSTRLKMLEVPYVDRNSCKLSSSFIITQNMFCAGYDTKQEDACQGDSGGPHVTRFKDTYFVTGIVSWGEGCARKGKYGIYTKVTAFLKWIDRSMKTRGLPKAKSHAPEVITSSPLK
T3 sequence (P00742 41-179 partner limits assumed): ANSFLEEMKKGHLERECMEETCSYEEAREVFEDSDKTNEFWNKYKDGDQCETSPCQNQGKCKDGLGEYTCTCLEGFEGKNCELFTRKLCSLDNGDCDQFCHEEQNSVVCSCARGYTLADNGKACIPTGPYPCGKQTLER
Source text: as §1

[5] = iv; cited from earlier work
[6] = 30 min preincubation, substrate Boc-Gln-Ala-Arg-AMC
[7] = 30 min preincubation, substrate D-Phe-Homopro-Arg-pNA
[8] = 30 min preincubation, substrate Bz-Ile-Glu-Gly-Arg-pNA

Chain of TMPRSS2 (O15393 whole entry): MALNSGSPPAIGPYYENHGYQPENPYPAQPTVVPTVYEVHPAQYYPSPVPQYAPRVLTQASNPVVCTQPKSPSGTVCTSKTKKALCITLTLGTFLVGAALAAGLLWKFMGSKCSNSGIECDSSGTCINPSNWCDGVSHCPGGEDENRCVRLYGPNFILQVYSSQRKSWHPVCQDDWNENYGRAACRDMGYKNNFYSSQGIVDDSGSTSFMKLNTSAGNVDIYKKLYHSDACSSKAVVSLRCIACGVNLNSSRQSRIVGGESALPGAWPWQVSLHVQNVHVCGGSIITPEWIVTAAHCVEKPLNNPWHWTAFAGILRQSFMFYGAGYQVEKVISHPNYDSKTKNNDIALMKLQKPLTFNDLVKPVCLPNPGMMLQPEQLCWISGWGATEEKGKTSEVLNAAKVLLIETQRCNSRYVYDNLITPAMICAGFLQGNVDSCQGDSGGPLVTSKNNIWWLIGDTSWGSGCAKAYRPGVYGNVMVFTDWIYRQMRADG

Molecule `Cc1cc(=O)oc2cc(NC(=O)[C@H](CCCN=C(N)N)NC(=O)[C@H](C)NC(=O)[C@H](CCC(N)=O)NC(=O)OC(C)(C)C)ccc12` [Boc-Gln-Ala-Arg-AMC] (Boc-Gln-Ala-Arg-{AMC}) has a Km [1] of 77 µM.

For `CC(=O)N[C@H](CCCNC(=N)N)C(=O)N[C@@H](CC1CCC1)C(=O)N[C@H](CO)CCCNC(=N)N` [Cpd. 7 alcohol], the “Ki Matriptase” value [2, 6] was “n.i”, the “matriptase activity, Mean (control = 100), S6a” value (“matriptase activity, Mean … S6a” for short) ([2]; inhibitor 10 nM) was 90.4903 and the “matriptase activity, Mean … S6a” value ([2]; inhibitor 100 nM) was 101.634. For the same molecule, the “matriptase activity, Mean … S6a” value ([2]; inhibitor 1000 nM) was 101.337, the “matriptase activity, Mean … S6a” value ([2]; inhibitor 50000 nM) was 91.3819 and the “matriptase activity, Mean … S6a” value ([2]; inhibitor 500000 nM) was 44.4279. For the same molecule, the “Ki Thrombin” value [3, 7] was “n.i”, the “thrombin activity, Mean (control = 100), S6b” value (from here on “thrombin activity, Mean … S6b”) ([3]; inhibitor 0.2 nM) was 90.7019 and the “thrombin activity, Mean … S6b” value ([3]; inhibitor 2 nM) was 92.977. The “thrombin activity, Mean … S6b” value ([3]; inhibitor 20 nM) was 91.1965, the “thrombin activity, Mean … S6b” value ([3]; inhibitor 200 nM) was 95.4993 and the “thrombin activity, Mean … S6b” value ([3]; inhibitor 10000 nM) was 93.8672. The “thrombin activity, Mean … S6b” value ([3]; inhibitor 100000 nM) was 91.2954, the “Ki Factor Xa” value [4, 8] was “n.i” and the “factor Xa activity, Mean (control = 100), S6c” value (“factor Xa activity, Mean … S6c” below) ([4]; inhibitor 0.2 nM) was 93.6065. For the same molecule, the “factor Xa activity, Mean … S6c” value ([4]; inhibitor 2 nM) was 101.454, the “factor Xa activity, Mean … S6c” value ([4]; inhibitor 20 nM) was 95.9299 and the “factor Xa activity, Mean … S6c” value ([4]; inhibitor 200 nM) was 88.9574. The “factor Xa activity, Mean … S6c” value ([4]; inhibitor 10000 nM) was 78.1999 and the “factor Xa activity, Mean … S6c” value ([4]; inhibitor 100000 nM) was 120.06.

For `CC(=O)NC(CCCNC(=N)N)C(=O)NC(CC1CCC1)C(=O)NC(CCCNC(=N)N)C(=O)c1nccs1` (stereo not shown) [Cpd. 7 ketothiazole], the Ki [2, 6] was 141 nM, the “matriptase activity, Mean … S6a” value ([2]; inhibitor 0.1 nM) was 103.606 and the “matriptase activity, Mean … S6a” value ([2]; inhibitor 0.2 nM) was 101.185. For the same molecule, the “matriptase activity, Mean … S6a” value ([2]; inhibitor 1 nM) was 109.016, the “matriptase activity, Mean … S6a” value ([2]; inhibitor 10 nM) was 101.829 and the “matriptase activity, Mean … S6a” value ([2]; inhibitor 100 nM) was 75.1932. For the same molecule, the “matriptase activity, Mean … S6a” value ([2]; inhibitor 1000 nM) was 21.355, the “matriptase activity, Mean … S6a” value ([2]; inhibitor 50000 nM) was 0.4637 and the “matriptase activity, Mean … S6a” value ([2]; inhibitor 500000 nM) was -0.1803. For the same molecule, the “Ki Thrombin” value [3, 7] was “n.i”, the “thrombin activity, Mean … S6b” value ([3]; inhibitor 0.02 nM) was 96.7111 and the “thrombin activity, Mean … S6b” value ([3]; inhibitor 0.04 nM) was 101.49. The “thrombin activity, Mean … S6b” value ([3]; inhibitor 0.2 nM) was 101.233, the “thrombin activity, Mean … S6b” value ([3]; inhibitor 2 nM) was 107.554 and the “thrombin activity, Mean … S6b” value ([3]; inhibitor 20 nM) was 101.388. For the same molecule, the “thrombin activity, Mean … S6b” value ([3]; inhibitor 200 nM) was 101.233, the “thrombin activity, Mean … S6b” value ([3]; inhibitor 10000 nM) was 98.2014 and the “thrombin activity, Mean … S6b” value ([3]; inhibitor 100000 nM) was 83.6589. For the same molecule, the Ki [4, 8] was 98.7 nM, the “factor Xa activity, Mean … S6c” value ([4]; inhibitor 0.02 nM) was 95.3485 and the “factor Xa activity, Mean … S6c” value ([4]; inhibitor 0.04 nM) was 90.4387. The “factor Xa activity, Mean … S6c” value ([4]; inhibitor 0.2 nM) was 87.8566, the “factor Xa activity, Mean … S6c” value ([4]; inhibitor 2 nM) was 87.8545 and the “factor Xa activity, Mean … S6c” value ([4]; inhibitor 20 nM) was 82.4299. The “factor Xa activity, Mean … S6c” value ([4]; inhibitor 200 nM) was 52.1976, the “factor Xa activity, Mean … S6c” value ([4]; inhibitor 10000 nM) was 2.584 and the “factor Xa activity, Mean … S6c” value ([4]; inhibitor 100000 nM) was 3.101.

In the case of `NC(N)=Nc1ccc(C(=O)Oc2ccc(CC(=O)O)cc2)cc1` [FOY-251, reference compound], the in vivo half-life [5] is listed as 1 to 1.67 h, the “matriptase activity, Mean (Fig. 2b)” value ([2]; 0.05 nM) is listed as 110.25 and the “matriptase activity, Mean (Fig. 2b)” value ([2]; 0.5 nM) is listed as 111.62. For the same molecule, the “matriptase activity, Mean (Fig. 2b)” value ([2]; 5 nM) was 106.849, the “matriptase activity, Mean (Fig. 2b)” value ([2]; 50 nM) was 97.213 and the “matriptase activity, Mean (Fig. 2b)” value ([2]; 500 nM) was 35.5692. For the same molecule, the “matriptase activity, Mean (Fig. 2b)” value ([2]; 5000 nM) was 1.606, the “matriptase activity, Mean (Fig. 2b)” value ([2]; 50000 nM) was 0.2362 and the “matriptase activity, Mean (Fig. 2b)” value ([2]; 500000 nM) was 0.1417. The Ki [2, 6] was 173 nM, the “thrombin activity, Mean (Fig. 2c)” value ([3]; 0.01 nM) was 101.844 and the “thrombin activity, Mean (Fig. 2c)” value ([3]; 0.02 nM, 0 nM = 100) was 101.898. The “thrombin activity, Mean (Fig. 2c)” value ([3]; 0.04 nM, 0 nM = 100) was 101.898, the “thrombin activity, Mean (Fig. 2c)” value ([3]; 0.2 nM, 0 nM = 100) was 101.356 and the “thrombin activity, Mean (Fig. 2c)” value ([3]; 2 nM, 0 nM = 100) was 99.0781. For the same molecule, the “thrombin activity, Mean (Fig. 2c)” value ([3]; 20 nM, 0 nM = 100) was 102.277, the “thrombin activity, Mean (Fig. 2c)” value ([3]; 10000 nM, 0 nM = 100) was 93.0588 and the “thrombin activity, Mean (Fig. 2c)” value ([3]; 100000 nM, 0 nM = 100) was 44.1974. The Ki [3, 7] was greater than 50000 nM, the “factor Xa activity, Mean (Fig. 2d)” value ([4]; 0.02 nM) was 91.2533 and the “factor Xa activity, Mean (Fig. 2d)” value ([4]; 0.04 nM) was 91.3991. For the same molecule, the “factor Xa activity, Mean (Fig. 2d)” value ([4]; 0.2 nM) was 72.8853, the “factor Xa activity, Mean (Fig. 2d)” value ([4]; 2 nM) was 86.5885 and the “factor Xa activity, Mean (Fig. 2d)” value ([4]; 20 nM) was 82.2151. The “factor Xa activity, Mean (Fig. 2d)” value ([4]; 200 nM) was 72.5938, the “factor Xa activity, Mean (Fig. 2d)” value ([4]; 10000 nM) was 34.986 and the “factor Xa activity, Mean (Fig. 2d)” value ([4]; 100000 nM) was 16.3265. The Ki [4, 8] was 697 nM.
